Test results from article PMC10209615, “Pharmacological inhibition of LSD1 suppresses growth of hepatocellular carcinoma by inducing GADD45B” (MedComm, 2023).

Legend:
[1] = system: nine HCC cell lines; assay: CCK‐8 cell proliferation assay; type: cell-based; conditions: Homo sapiens; post‐treatment for 144 h; read-out: half‐maximal inhibitory concentration (IC50), proliferation of HCC cell lines
Description: Cell viability was determined using Cell Counting Kit‐8 (CCK8; Dojindo) or 3‐(4, 5‐dimethylthiazol‐2‐yl)‐2,5‐diphenyltetrazoliumbromide (MTT, Sigma Aldrich) assay. […] Consequently, cell viability was determined using a microplate reader (Thermo Fisher) at 450 nm for CCK8 assay, or 570 nm for MTT assay, at different time points. The IC50 values and CI values were analyzed and calculated using GraphPad Prism 8 and CompuSyn (version 1.0; http://www.combosyn.com), respectively.

[2] = system: SK-Hep-1; assay: Cell proliferation assay; type: cell-based; conditions: Homo sapiens, SK-HEP1; SK-Hep-1, 144 h
Description: (§1) Cell viability was determined using Cell Counting Kit‐8 (CCK8; Dojindo) or 3‐(4, 5‐dimethylthiazol‐2‐yl)‐2,5‐diphenyltetrazoliumbromide (MTT, Sigma Aldrich) assay. A selection of HCC cells was exposed to gradient concentration of ZY0511 for 96–144 h, or exposed to other LSD1 inhibitors including SP2509, GSK2879552, and ORY1001 for 144 h, or exposed to DTP3, which enhanced the apoptosis induction function of GADD45B for 96 h in combination therapy. Consequently, cell viability was determined using a microplate reader (Thermo Fisher) at 450 nm for CCK8 assay, or 570 nm for MTT assay, at different time points. The IC50 values and CI values were analyzed and calculated using GraphPad Prism 8 and CompuSyn (version 1.0; http://www.combosyn.com), respectively.

[3] = system: JHH7; assay: Cell proliferation assay; type: cell-based; conditions: Homo sapiens, JHH7, 144 h
Description: as §1

[4] = system: HCCLM3; assay: Cell proliferation assay; type: cell-based; conditions: Homo sapiens, HCCLM3, 144 h
Description: as §1

[5] = system: Hep3B; assay: Cell proliferation assay; type: cell-based; conditions: Homo sapiens, 144 h
Description: as §1

[6] = system: QGY7701; assay: Cell proliferation assay; type: cell-based; conditions: Homo sapiens, QGY7701, 144 h
Description: as §1

[7] = system: HuH6; assay: Cell proliferation assay; type: cell-based; conditions: Homo sapiens, HuH-6; HuH6, 144 h
Description: as §1

[8] = system: HuH7; assay: Cell proliferation assay; type: cell-based; conditions: Homo sapiens, Huh-7; HuH7, 144 h
Description: as §1

[9] = system: HepG2; assay: Cell proliferation assay; type: cell-based; conditions: Homo sapiens, HepG2, 144 h
Description: as §1

[10] = system: PLC/PRF/5; assay: Cell proliferation assay; type: cell-based; conditions: Homo sapiens; PLC/PRF/5, 144 h
Description: as §1

[11] = biological target: Truncated human LSD1 (residues 172–836) (Homo sapiens, UniProt O60341); assay: Surface plasmon resonance (Biacore); type: binding; conditions: 25°C, read-out: dissociation constant (KD)
Description: Briefly, the truncated LSD1 was cloned into a pET28a plasmid and expressed in Escherichia coli BL21(DE3) at 18°C (Novagen). The fusion protein was purified by the nickel charged nitrilotriacetic acid (Ni‐NTA, GE Healthcare) with buffer A (20 mM Tris‐HCl, pH 8.5, 10 mM imidazole, 500 mM NaCl, and 2 mM dithiothreitol DTT) and buffer B (20 mM Tris‐HCl, Ph 8.5, 500 mM imidazole, 500 mM NaCl, and 2 mM DTT). Then, LSD1 was digested overnight with Thrombin Protease (Sigma Aldrich) to remove His‐tag and dialyzed against buffer C (20 mM Tris‐HCl, pH 8.5, 150 mM NaCl, and 2mM DTT) overnight at 4°C. The next day, the target protein was applied to Ni‐NTA again to remove the uncleaved His‐tag protein. LSD1 without His‐tag was further purified by an S200 16/600 column (GE Healthcare) in buffer C. The quality of purified LSD1 was checked by sodium dodecyl sulphate‐polyacrylamide gel electrophoresis (SDS‐PAGE).[47]
LSD1 protein was immobilized on a CM5 sensor chip by the amine‐coupling method. […] The binding kinetics was analyzed using BIAevaluation software (version 4.1, Biacore).

IC50 [1]	IC50 [2]	IC50 [4]	IC50 [5]	IC50 [7]	IC50 [8]	IC50 [9]	SMILES	IC50 [3]	IC50 [6]	IC50 [10]	Kd [11]
≥ 28.6 µM	> 100 µM	> 100 µM	> 100 µM	> 100 µM	> 100 µM	> 100 µM	O=C(O)c1ccc(CN2CCC(CN[C@@H]3C[C@H]3c3ccccc3)CC2)cc1 [GSK2879552]	> 100 µM	> 100 µM	> 100 µM	–
≥ 28.6 µM	35.8 ± 5.05 µM	> 100 µM	28.6 ± 6.72 µM	46.3 ± 1.39 µM	> 100 µM	> 100 µM	N[C@H]1CC[C@H](N[C@@H]2C[C@H]2c2ccccc2)CC1 [ORY1001]	56.2 ± 9.07 µM	> 100 µM	> 100 µM	–
–	–	–	–	–	–	–	C/C(=N\NC(=O)c1cccc(S(=O)(=O)N2CCOCC2)c1)c1cc(Cl)ccc1O [SP2509]	–	–	–	0.0198 µM
